Measured values taken from patent publication US6608086B2, “Dihydropyridines and new uses thereof” (Synaptic Pharmaceutical Corporation, priority 1993, dated 2003).
Structures can show the parent of a compound that is named as a salt. Where two headings read alike, the source gives them in different places. Values belong to the molecule of their own block, whether it stands above or below them.

Key:
[1] = target: T1, α1C Human Adrenergic Receptor (Homo sapiens, UniProt P35348); experiment: Radioligand binding, [3H]prazosin, cloned human α1C adrenergic receptor
T1 construct: The entire coding region of α1C (1401 bp); expressed in transfected cells
T1 sequence (P35348 1-466): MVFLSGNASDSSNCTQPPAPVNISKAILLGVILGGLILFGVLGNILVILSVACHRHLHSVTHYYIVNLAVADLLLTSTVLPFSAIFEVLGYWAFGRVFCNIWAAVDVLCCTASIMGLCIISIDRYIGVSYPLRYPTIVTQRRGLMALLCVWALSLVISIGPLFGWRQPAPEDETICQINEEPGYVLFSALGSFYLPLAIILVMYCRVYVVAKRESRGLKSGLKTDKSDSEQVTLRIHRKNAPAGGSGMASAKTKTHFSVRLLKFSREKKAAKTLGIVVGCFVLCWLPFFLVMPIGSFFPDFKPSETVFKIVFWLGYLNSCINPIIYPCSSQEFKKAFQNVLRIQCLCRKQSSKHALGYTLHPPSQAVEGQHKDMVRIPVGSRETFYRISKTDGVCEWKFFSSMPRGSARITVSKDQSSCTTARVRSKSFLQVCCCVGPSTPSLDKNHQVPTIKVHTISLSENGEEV
Outline: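 Read-out is filter-retained [3H]prazosin (0.5 nM) bound to membranes of LM(tk−) cells stably carrying the human α1C receptor. Incubation ran 20 min at 37° C. at pH 7.5, with 10 μM phentolamine marking nonspecific binding.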

[2] = target: T2, α1A Human Adrenergic Receptor (Homo sapiens, UniProt P25100); experiment: Radioligand binding, [3H]prazosin, cloned human α1A adrenergic receptor
T2 construct: The entire coding region of α1A (1719 bp); expressed in transfected cells
T2 sequence (P25100 1-572): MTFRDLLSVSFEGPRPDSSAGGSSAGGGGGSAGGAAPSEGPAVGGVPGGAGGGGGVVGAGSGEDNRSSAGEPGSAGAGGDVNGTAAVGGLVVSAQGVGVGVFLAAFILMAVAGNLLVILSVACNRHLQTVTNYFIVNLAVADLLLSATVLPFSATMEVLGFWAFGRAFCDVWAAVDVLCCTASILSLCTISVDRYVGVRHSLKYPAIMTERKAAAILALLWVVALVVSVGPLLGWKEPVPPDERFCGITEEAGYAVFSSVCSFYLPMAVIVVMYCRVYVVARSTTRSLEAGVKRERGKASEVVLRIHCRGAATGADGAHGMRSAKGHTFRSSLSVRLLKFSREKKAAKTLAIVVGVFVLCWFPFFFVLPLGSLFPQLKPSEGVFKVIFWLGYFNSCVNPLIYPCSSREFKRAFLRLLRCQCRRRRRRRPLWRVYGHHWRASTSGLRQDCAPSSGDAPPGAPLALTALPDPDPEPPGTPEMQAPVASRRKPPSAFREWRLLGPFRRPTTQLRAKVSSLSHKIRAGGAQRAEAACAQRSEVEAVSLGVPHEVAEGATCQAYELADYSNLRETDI
Outline: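 Membranes from LM(tk−) cells transfected with human α1A were incubated with 0.5 nM [3H]prazosin in 50 mM Tris-HCl, 1 mM MgCl2, 0.1% ascorbic acid, pH 7.5, for 20 min at 37° C. Nonspecific binding was defined with 10 μM phentolamine. Bound ligand was separated by GF/B filtration.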

[3] = cloned human receptor in LM(tk-) cell membranes, SEM and n in lines below, read-out: pKi alpha-1 1c (converted)
[4] = [3H]prazosin, cloned human receptor in LM(tk-) cell membranes, SEM and n in lines below, read-out: pKi alpha-1 1a (converted)
[5] = PKi alpha-1 1c, cloned human receptor, LM(tk-) cell membranes, mean
[6] = PKi alpha-1 1a, [3H]prazosin, cloned human receptor, LM(tk-) cell membranes, mean
[7] = cloned human receptor, LM(tk-) cell membranes, mean, read-out: PKi alpha-1 1c (converted)
[8] = [3H]prazosin, cloned human receptor, LM(tk-) cell membranes, mean, read-out: PKi alpha-1 1a (converted)
[9] = cloned human α1C receptor, LM(tk-) cell membranes, read-out: PKi alpha-1 1c (converted)
[10] = [3H]prazosin, cloned human α1A receptor, LM(tk-) cell membranes, read-out: PKi alpha-1 1a (converted)

Ki [1, 3]: 9.33 nM
Ki [2, 4]: 178 nM
SMILES: COC(=O)C1=C(C)NC(C)=C(C(=O)NCCCN2CCC(c3ccccc3)CC2)C1c1ccc([N+](=O)[O-])cc1 (single isomer, unassigned; (+)) [(+)-45, 1,4-Dihydro-3-methoxycarbonyl-2,6-dimethyl-4-(4-nitrophenyl)-5-{N-[3-(4-phenylpiperidin-1-yl)propyl]}carboxamidopyridine hydrochloride hemihydrate]

Ki [1, 3]: 1.17 nM
Ki [2, 4]: 112 nM
melting point: 139 to 139.5 °C
SMILES: COC(=O)C1=C(C)NC(C)=C(C(=O)NCCCN2CCC(c3ccccc3)CC2)C1c1ccc(C)cc1 (stereo not drawn) [Example 31, 1,4-Dihydro-3-methoxycarbonyl-2,6-dimethyl-4-(4-methylphenyl)-5-(N-(3-(4-phenylpiperidin-1-yl)propyl)carboxamido)pyridine]

SMILES: COc1cc2c(c(OC)c1)CCN(CCCNC(=O)C1=C(c3ccoc3)NC(C)=C(C(N)=O)C1c1ccc([N+](=O)[O-])cc1)C2.Cl.O (stereo not drawn) [Example 67]
pKi alpha-1 1c ([1]; cloned human receptor in LM(tk-) cell membranes, SEM and n in lines below): 6.48
pKi alpha-1 1a ([2]; [3H]prazosin, cloned human receptor in LM(tk-) cell membranes, SEM and n in lines below): 5.96

SMILES: CNC(=O)C1=C(C)NC(C)=C(C(=O)NCCCN2CCC(c3ccccc3)(c3ccccc3)CC2)C1c1ccc2c(c1)OCCO2 (stereo not drawn) [Example 163]
Ki [1, 5]: 18.6 nM
Ki [2, 6]: 776 nM
melting point: 115 to 116 °C

SMILES: CCC1=C(C(N)=O)C(c2ccc([N+](=O)[O-])cc2)C(C(=O)NCCCN2CCC(C(=O)OC)(c3ccccc3)CC2)=C(CCCCN=[N+]=[N-])N1 (stereo not drawn) [Example 165, 2-(4-Azidobutyl)-3-{N-[3-(4-methoxycarbonyl-4-phenylpiperidin-1-yl)propyl]}carboxamido-5-carboxamido-6-ethyl-1,4-dihydro-4-(4-nitrophenyl)pyridine]
Ki [1, 7]: 0.501 nM
Ki [2, 8]: 1410 nM
melting point: 74 to 77 °C

SMILES: CCC1=C(C(=O)NC)C(c2ccc([N+](=O)[O-])cc2)C(C(=O)NCCCN2CCC(c3ccccc3)(c3ccccc3)CC2)=C(CCCCN)N1 (stereo not drawn) [Example 172, 2-(4-Aminobutyl)-6-ethyl-1,4-dihydro-5-(N-methyl)carboxamido-4-(4-nitrophenyl)-3-{N-[3-(4,4-diphenylpiperidin-1-yl)propyl]}carboxamidopyridine]
Ki [1, 5]: 2.82 nM
Ki [2, 6]: 813 nM
melting point: 105 to 109 °C

SMILES: CCC1=C(C(=O)NC)C(c2ccc([N+](=O)[O-])cc2)C(C(=O)NCCCN2CCC(c3ccccc3)(c3ccccc3)CC2)=C(CCCCOC)N1 (stereo not drawn) [Example 173, 6-Ethyl-1,4-dihydro-2-(4-methoxybutyl)-5-(N-methyl)carboxamido-4-(4-nitrophenyl)-3-{N-[3-(4,4-diphenylpiperidin-1-yl)propyl]}carboxamidopyridine]
Ki [1, 5]: 3.98 nM
Ki [2, 6]: 741 nM
melting point: 98 to 102 °C

SMILES: CCC1=C(C(=O)NC)C(c2ccc([N+](=O)[O-])cc2)C(C(=O)NCCCN2CCC(C(=O)OC)(c3ccccc3)CC2)=C(CCCCOC)N1 (stereo not drawn) [Example 174, 6-Ethyl-1,4-dihydro-2-(4-methoxybutyl)-3-{N-[3-(4-methoxycarbonyl-4-phenylpiperidin-1-yl)propyl]}carboxamido-5-(N-methyl)carboxamido-4-(4-nitrophenyl)pyridine]
Ki [1, 7]: 4.07 nM
Ki [2, 8]: 3980 nM
melting point: 71 to 74 °C

SMILES: CC(=O)C1=C(C)NC(CCCCN)=C(C(=O)NCCCN2CCC(c3ccccc3)(c3ccccc3)CC2)C1c1ccc([N+](=O)[O-])cc1 (stereo not drawn) [Example 176, 5-Acetyl-2-(4-aminobutyl)-1,4-dihydro-6-methyl-4-(4-nitrophenyl)-3-{N-[3-(4,4-diphenylpiperidin-1-yl)propyl]}carboxamidopyridine]
Ki [1, 5]: 3.72 nM
Ki [2, 6]: 309 nM
melting point: 76 to 79 °C

SMILES: COC(=O)C1(c2ccccc2)CCN(CCCNC(=O)C2=C(CCCCN)NC(C)=C(C(C)=O)C2c2ccc([N+](=O)[O-])cc2)CC1 (stereo not drawn) [Example 178, 5-Acetyl-2-(4-aminobutyl)-1,4-dihydro-3-{N-[3-(4-methoxycarbonyl-4-phenylpiperidin-1-yl)propyl]}carboxamido-6-methyl-4-(4-nitrophenyl) pyridine]
Ki [1, 7]: 2.57 nM
Ki [2, 8]: 832 nM
melting point: 62 to 65 °C

SMILES: CCC1=C(C(=O)NC)C(c2ccc([N+](=O)[O-])cc2)C(C(=O)NCCCN2CCC(C(=O)OC)(c3ccccc3)CC2)=C(CC)N1 (stereo not drawn) [Example 179, 2,6-Diethyl-1,4-dihydro-3-{N-[3-(4-methoxycarbonyl-4-phenyl-piperidin-1-yl)propyl]}carboxamido-5-(N-methyl)carboxamido-4-(4-nitrophenyl)pyridine]
Ki [1, 7]: 3.31 nM
Ki ([2]; PKi alpha-1 1a): 4170 nM

SMILES: CCNC(=O)C1=C(CC)NC(CC)=C(C(=O)NCCCN2CCC(C(=O)OC)(c3ccccc3)CC2)C1c1ccc([N+](=O)[O-])cc1 (stereo not drawn) [Example 180, 2,6-Diethyl-1,4-dihydro-5-(N-ethyl)carboxamido-3-{N-[3-(4-methoxycarbonyl-4-phenylpiperidin-1-yl)propyl]}carboxamido-4-(4-nitrophenyl)pyridine]
Ki [1, 7]: 3.63 nM
Ki ([2]; PKi alpha-1 1a): 3020 nM
melting point: 217 °C (dec.)

SMILES: CCNC(=O)C1=C(CC)NC(COCCN)=C(C(=O)NCCCN2CCC(C(=O)OCC)(c3ccccc3)CC2)C1c1ccc([N+](=O)[O-])cc1 (stereo not drawn) [Example 192, 2-[(2-Aminoethoxy)methyl]-3-{N-[3-(4-ethoxycarbonyl-4-phenyl-piperidin-1-yl)propyl]}carboxamido-1,4-dihydro-6-ethyl-5-(N-ethyl)carboxamido-4-(4-nitrophenyl)pyridine]
Ki [1, 7]: 3.09 nM
Ki [2, 8]: 3020 nM
melting point: 112 to 114 °C

SMILES: CCOC(=O)C1(c2ccccc2)CCN(CCCNC(=O)C2=C(COCCN)NC(CC)=C(C(N)=O)C2c2ccc([N+](=O)[O-])cc2)CC1 (stereo not drawn) [Example 193, 2-[(2-Aminoethoxy)methyl]-5-carboxamido-3-{N-[3-(4-ethoxycarbonyl-4-phenylpiperidin-1-yl)propyl]}carboxamido-1,4-dihydro-6-ethyl-4-(4-nitrophenyl)pyridine]
Ki [1, 7]: 1.58 nM
Ki [2, 8]: 2880 nM
melting point: 87 to 89 °C

SMILES: CC(=O)C1=C(C)NC(COCCN)=C(C(=O)NCCCN2CCC(c3ccccc3)(c3ccccc3)CC2)C1c1ccc([N+](=O)[O-])cc1 (stereo not drawn) [Example 237, 5-Acetyl-2-((2-aminoethyl)oxy)methyl-1,4-dihydro-6-methyl-4-(4-nitro)phenyl 3-(N-(3-(4,4-diphenylpiperidin-1-yl)propyl)) carboxamidopyridine]
Ki [1, 5]: 2.63 nM
Ki [2, 6]: 380 nM

SMILES: CCOC(=O)C1(c2ccccc2)CCN(CCCNC(=O)C2=C(COCC(F)(F)F)NC(C)=C(C(N)=O)C2c2ccc([N+](=O)[O-])cc2)CC1 (stereo not drawn) [Example 243, 5-Carboxamido-3-(N-(3-(4-ethoxycarbonyl-4-phenylpiperidin-1yl)propyl))carboxamido-2-((2,2,2-trifluoroethyl)oxy)methyl-1,4dihydro-6-methyl-4-(4-nitro)phenylpyridine]
Ki [1, 9]: 5.75 nM
Ki [2, 10]: 1510 nM

SMILES: COC(=O)C1(c2ccccc2)CCN(CCCNC(=O)C2=C(COCCN)NC(C)=C(C(C)=O)C2c2ccc(F)cc2)CC1 (stereo not drawn) [Example 245, 5-Acetyl-2-((2-aminoethyl)oxy)methyl-4-(4-fluoro)phenyl-1,4-dihydro-3-(N-3-(4-methoxycarbonyl-4-phenylpiperidin-1-yl)propyl)carboxamido-6-methylpyridine]
Ki [1, 9]: 5.01 nM
Ki [2, 10]: 977 nM
